Data taken from patent US20250230193A1, “CYCLIC COMPOUND HAVING SELECTIVE KRAS INHIBITORY EFFECT ON HRAS AND NRAS” (CHUGAI SEIYAKU KABUSHIKI KAISHA, priority 2022, published 2025).
*1 amine or outer side, *2 acyl side, *3 side chain or, on linkers, in order; H or OH if unused. Where a SMILES comes first, the peptide text is derived from it. Bridges are numbered along the chain shown (N, C = ends). [ ]: non-standard residue; d: D form. The star is where a group is joined. hPhe(3-Cl-4-CF3) = N[C@@H](CCc1ccc(C(F)(F)F)c(Cl)c1)C(=O)O; X47 = O=C([C@H](Cc1ccc(C(F)(F)F)cc1)N(CCCF)[*:1])[*:2]; NMeGly(cPent) = CN[C@H](C(=O)O)C1CCCC1; NMeD = CN[C@@H](CC(=O)O)C(=O)O; NMeL = CN[C@@H](CC(C)C)C(=O)O; Morpholide = C1CN(*)CCO1; NMeA = CN[C@@H](C)C(=O)O; Ac5c = NC1(C(=O)O)CCCC1; Aze = O=C(O)[C@@H]1CCN1; Sar = CNCC(=O)O

Assays:
[1] = molecular target: GDP-bound NRAS wild-type protein (Homo sapiens, UniProt P01111); assay: Binding to NRAS by surface plasmon resonance (SPR), Single Cycle Kinetics; settings: KD ratio NRAS/KRAS, SPR
GDP-bound NRAS wild-type protein, sequence (P01111 whole entry): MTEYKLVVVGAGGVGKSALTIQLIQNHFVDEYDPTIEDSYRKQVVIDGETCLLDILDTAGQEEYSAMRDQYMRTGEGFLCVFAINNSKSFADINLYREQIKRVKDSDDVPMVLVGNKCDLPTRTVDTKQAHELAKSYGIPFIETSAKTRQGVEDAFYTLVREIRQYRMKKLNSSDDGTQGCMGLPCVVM

[2] = molecular target: GDP-bound HRAS wild-type protein (Homo sapiens, UniProt P01112); assay: Binding to HRAS by surface plasmon resonance (SPR), Single Cycle Kinetics; settings: KD ratio HRAS/KRAS, SPR
GDP-bound HRAS wild-type protein, sequence (P01112 whole entry): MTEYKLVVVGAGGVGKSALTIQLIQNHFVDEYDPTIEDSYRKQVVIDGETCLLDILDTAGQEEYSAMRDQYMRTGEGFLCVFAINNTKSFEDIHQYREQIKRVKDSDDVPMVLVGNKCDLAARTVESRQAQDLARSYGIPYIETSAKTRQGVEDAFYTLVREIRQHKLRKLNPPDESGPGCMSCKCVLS

Row | Structure (SMILES) | NRAS/KRAS (ratio of KD value with respect to GDP-bound NRAS wild-type protein to KD value with respect to KRAS) [1] | HRAS/KRAS (ratio of KD value with respect to GDP-bound HRAS wild-type protein to KD value with respect to KRAS) [2]
1 | CC[C@H](C)[C@@H]1NC(=O)[C@@H]2CCCCCN2C(=O)C[C@@H](C(=O)N2CCOCC2)N(C)C(=O)[C@H](C2CCCC2)N(C)C(=O)C2(CCCC2)NC(=O)[C@@H]2CCCN2C(=O)[C@H](CCc2cc(F)c(C(F)(F)F)c(F)c2)NC(=O)CN(C)C(=O)[C@H](Cc2ccc(C(F)(F)F)cc2)N2CCCCC[C@@H](C2=O)N(C)C(=O)CN(C)C1=O [PP0521] | B (a compound having 3 or more and less than 10 is denoted as B) | B (a compound having 3 or more and less than 10 is denoted as B)
2 | CC(C)C[C@H]1C(=O)N[C@@H](C2CCC2)C(=O)N(C)CC(=O)N(C)[C@H]2CCCCCN(C2=O)[C@@H](Cc2ccc(C(F)(F)F)cc2)C(=O)N(C)CC(=O)N[C@@H](CCc2cc(F)c(C(F)(F)F)c(F)c2)C(=O)N2CCC[C@H]2C(=O)NC2(CCCC2)C(=O)N(C)[C@@H](C2CCCC2)C(=O)N(C)[C@H](C(=O)N2CCOCC2)CC(=O)N1C [PP0522] | B (a compound having 3 or more and less than 10 is denoted as B) | B (a compound having 3 or more and less than 10 is denoted as B)
3 | CCC(CC)[C@@H]1NC(=O)[C@H](CC(C)C)N(C)C(=O)C[C@@H](C(=O)N2CCOCC2)N(C)C(=O)[C@H](C2CCCC2)N(C)C(=O)C2(CCCC2)NC(=O)[C@@H]2CCCN2C(=O)[C@H](CCc2cc(F)c(C(F)(F)F)c(F)c2)NC(=O)CN(C)C(=O)[C@H](Cc2ccc(C(F)(F)F)cc2)N2CCCCC[C@@H](C2=O)N(C)C(=O)CN(C)C1=O [PP0523] | A (a compound having 10 or more and less than 20 is denoted as A) | B (a compound having 3 or more and less than 10 is denoted as B)
4 | CC[C@H](C)[C@@H]1NC(=O)[C@H](CC(C)C)N(C)C(=O)C[C@@H](C(=O)N2CCOCC2)N(C)C(=O)[C@H](C2CCCC2)N(C)C(=O)C2(CCCC2)NC(=O)[C@@H]2CCCN2C(=O)[C@H](CCc2ccc(C(F)(F)F)c(Cl)c2)NC(=O)CN(C)C(=O)[C@H](Cc2ccc(C(F)(F)F)cc2)N(CCCF)C(=O)CN(C)C(=O)CN(C)C1=O [PP0524] ([NMeL]I[Sar][Sar][X47][Sar][hPhe(3-Cl-4-CF3)]P[Ac5c][NMeGly(cPent)][NMeD]-Morpholide; lactam N-11) | B (a compound having 3 or more and less than 10 is denoted as B) | C (A compound having a KD ratio of 0.1 or more and less than 3 is denoted as C)
5 | CC[C@H](C)[C@@H]1NC(=O)[C@H](CC(C)C)N(C)C(=O)C[C@@H](C(=O)N2CCOCC2)N(C)C(=O)[C@H](C2CCCC2)N(C)C(=O)C2(CCCC2)NC(=O)[C@@H]2CCCN2C(=O)[C@H](CCc2ccc(C(F)(F)F)c(Cl)c2)NC(=O)CN(C)C(=O)[C@H](Cc2ccc(C(F)(F)F)cc2)N(CCCF)C(=O)[C@@H]2CCN2C(=O)[C@H](C)N(C)C1=O [PP0525] ([NMeL]I[NMeA][Aze][X47][Sar][hPhe(3-Cl-4-CF3)]P[Ac5c][NMeGly(cPent)][NMeD]-Morpholide; lactam N-11) | C (A compound having a KD ratio of 0.1 or more and less than 3 is denoted as C) | B (a compound having 3 or more and less than 10 is denoted as B)
